These results are taken from article PMC5713249, “PeaTAR1B: Characterization of a Second Type 1 Tyramine Receptor of the American Cockroach, Periplaneta americana” (International Journal of Molecular Sciences, 2017).

Experiment [1] addresses T1, PeaTAR1B (PeaTAR1B-HA) (Periplaneta americana, UniProt A0A239QQ38).
T1 construct: stably expressed in HEK 293 flpTM cells
T1 sequence (A0A239QQ38 1-481): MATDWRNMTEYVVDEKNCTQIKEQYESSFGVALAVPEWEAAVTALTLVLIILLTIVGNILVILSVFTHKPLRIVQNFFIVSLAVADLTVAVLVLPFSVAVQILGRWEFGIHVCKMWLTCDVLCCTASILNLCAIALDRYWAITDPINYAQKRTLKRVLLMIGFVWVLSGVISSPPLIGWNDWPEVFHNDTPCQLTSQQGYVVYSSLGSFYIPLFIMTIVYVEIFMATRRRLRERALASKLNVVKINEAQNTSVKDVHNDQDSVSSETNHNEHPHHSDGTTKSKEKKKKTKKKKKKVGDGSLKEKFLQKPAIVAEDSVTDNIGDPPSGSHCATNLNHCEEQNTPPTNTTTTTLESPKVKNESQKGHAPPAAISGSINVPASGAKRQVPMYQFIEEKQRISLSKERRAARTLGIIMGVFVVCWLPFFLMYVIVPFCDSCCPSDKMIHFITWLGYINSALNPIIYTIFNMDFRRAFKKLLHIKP
The experiment can be described thus: attenuation of NKH 477-stimulated cAMP, CNG channel / Fluo-4 Ca2+ fluorescence in HEK […] flpTM cells. The format is cell-based.

Experiment [2] addresses T1, PeaTAR1B (PeaTAR1B-HA). The experiment can be described thus: block of tyramine-induced attenuation of NKH 477-stimulated cAMP, CNG channel / Fluo-4 fluorescence in HEK […] flpTM cells. The format is cell-based.

The compound `NCCc1ccc(O)cc1` [tyramine] gave an EC50 in experiment [1] of about 6.3 nM.

With `COC(=O)[C@@H]1[C@H]2C[C@H]3c4[nH]c5ccccc5c4CCN3C[C@@H]2CC[C@@H]1O` [yohimbine], in experiment [2], half-maximal inhibition (IC50) required 740 nM.

For orientation: EC50 means the concentration that produces a half-maximal response. The low end stands for a more potent agent, the high end for a less potent agent. What is called IC50 is the concentration that inhibits the measured activity by half. Lower therefore signals greater potency.
